The values below come from ChEMBL document CHEMBL4364346, “Structure optimization of a new class of PPARγ antagonists” (Bioorg Med Chem, 2019).

Data set [1] in a line: Cmax in Swiss CD1 mouse at 1 mg/kg, ip measured upto 7 hrs by LC-MS analysis. It counts as ADME, organism-based. Also on record: dose 1 mg/kg, route intraperitoneal. Conditions: in vivo.
Data set [2] in a line: Tmax in Swiss CD1 mouse at 1 mg/kg, ip measured upto 7 hrs by LC-MS analysis. It counts as ADME, organism-based. To be noted: in vivo.
Data set [3] in a line: AUC (0 to 3 hrs) in Swiss CD1 mouse at 1 mg/kg, ip measured upto 3 hrs by LC-MS analysis. It counts as ADME, organism-based. Set-up: dose 1 mg/kg, time < 3 hr, route intraperitoneal. Conditions: in vivo.
Data set [4] can be described thus: Cmax in Swiss CD1 mouse at 10 mg/kg, ip measured upto 7 hrs by LC-MS analysis. It counts as ADME, organism-based. Also on record: dose 10 mg/kg, route intraperitoneal. Conditions: in vivo.
The nature of data set [5]: Tmax in Swiss CD1 mouse at 10 mg/kg, ip measured upto 7 hrs by LC-MS analysis. To be noted: in vivo. It counts as ADME, organism-based.
The nature of data set [6]: Plasma concentration in Swiss CD1 mouse at 10 mg/kg, ip measured upto 4 hrs by LC-MS analysis. It counts as ADME, organism-based.
Data set [7] deals with T1, Peroxisome proliferator-activated receptor delta (Homo sapiens) (UniProt Q03181).
T1 sequence (whole entry): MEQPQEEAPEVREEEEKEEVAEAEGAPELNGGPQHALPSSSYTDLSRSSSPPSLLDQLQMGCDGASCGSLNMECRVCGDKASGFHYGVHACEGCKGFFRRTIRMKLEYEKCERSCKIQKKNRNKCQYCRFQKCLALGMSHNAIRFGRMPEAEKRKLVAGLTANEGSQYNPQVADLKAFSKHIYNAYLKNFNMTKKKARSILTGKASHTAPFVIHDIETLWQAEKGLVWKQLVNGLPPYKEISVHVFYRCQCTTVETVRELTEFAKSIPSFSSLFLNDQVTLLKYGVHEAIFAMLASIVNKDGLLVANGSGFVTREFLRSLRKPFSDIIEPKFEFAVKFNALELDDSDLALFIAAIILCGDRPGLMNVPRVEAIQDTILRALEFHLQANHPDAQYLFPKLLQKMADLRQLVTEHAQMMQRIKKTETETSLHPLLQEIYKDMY
As to the kind of experiment: Agonist activity at recombinant human pFA-CMV fused PPARdelta LBD transfected in HEK293T cells assessed as PPARdelta activation at 1 uM incubated for 12 to 14 hrs by dual glo luciferase reporter gene assay. It counts as cell-based. For orientation: In a reporter assay the amount or activity of a reporter protein is the signal.

Data set [8] deals with T2, Retinoic acid receptor RXR-alpha (Homo sapiens) (UniProt P19793).
T2 sequence (whole entry): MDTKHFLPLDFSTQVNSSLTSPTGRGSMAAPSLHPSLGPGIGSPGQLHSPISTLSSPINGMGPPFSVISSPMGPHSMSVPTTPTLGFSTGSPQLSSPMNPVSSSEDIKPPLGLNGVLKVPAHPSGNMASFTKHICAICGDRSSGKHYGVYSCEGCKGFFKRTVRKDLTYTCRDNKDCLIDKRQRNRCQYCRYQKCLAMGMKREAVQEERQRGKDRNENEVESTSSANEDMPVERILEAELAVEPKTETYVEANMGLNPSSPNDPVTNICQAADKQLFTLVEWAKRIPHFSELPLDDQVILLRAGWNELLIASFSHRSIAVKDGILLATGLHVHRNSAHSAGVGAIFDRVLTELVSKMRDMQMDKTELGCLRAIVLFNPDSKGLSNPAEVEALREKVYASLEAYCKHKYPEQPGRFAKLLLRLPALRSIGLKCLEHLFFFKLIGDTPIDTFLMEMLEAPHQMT
As to the kind of experiment: Agonist activity at recombinant human pFA-CMV fused RXRalpha LBD transfected in HEK293T cells assessed as RXRalpha activation at 1 uM incubated for 12 to 14 hrs by dual glo luciferase reporter gene assay. It counts as cell-based.

Data set [9] addresses T3, Bile acid receptor (Homo sapiens) (UniProt Q96RI1).
T3 sequence (whole entry): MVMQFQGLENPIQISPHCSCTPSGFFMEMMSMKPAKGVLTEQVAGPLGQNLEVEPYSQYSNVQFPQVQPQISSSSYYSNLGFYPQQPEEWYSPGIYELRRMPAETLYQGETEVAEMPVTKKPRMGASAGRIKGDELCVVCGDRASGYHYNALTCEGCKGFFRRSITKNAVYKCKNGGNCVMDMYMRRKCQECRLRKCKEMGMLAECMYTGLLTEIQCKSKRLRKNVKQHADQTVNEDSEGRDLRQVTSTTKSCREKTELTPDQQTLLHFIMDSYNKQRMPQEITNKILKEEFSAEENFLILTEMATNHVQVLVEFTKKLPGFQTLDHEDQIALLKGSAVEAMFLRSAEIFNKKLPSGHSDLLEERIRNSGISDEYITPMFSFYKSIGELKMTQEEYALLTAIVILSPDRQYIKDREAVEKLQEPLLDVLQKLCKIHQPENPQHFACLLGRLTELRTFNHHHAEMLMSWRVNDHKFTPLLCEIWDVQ
As to the kind of experiment: Agonist activity at recombinant human pFA-CMV fused FXR LBD transfected in HEK293T cells assessed as FXR activation at 1 uM incubated for 12 to 14 hrs by dual glo luciferase reporter gene assay. It counts as cell-based.

In data set [10] the target is T4, Vitamin D3 receptor (Homo sapiens) (UniProt P11473).
T4 sequence (whole entry): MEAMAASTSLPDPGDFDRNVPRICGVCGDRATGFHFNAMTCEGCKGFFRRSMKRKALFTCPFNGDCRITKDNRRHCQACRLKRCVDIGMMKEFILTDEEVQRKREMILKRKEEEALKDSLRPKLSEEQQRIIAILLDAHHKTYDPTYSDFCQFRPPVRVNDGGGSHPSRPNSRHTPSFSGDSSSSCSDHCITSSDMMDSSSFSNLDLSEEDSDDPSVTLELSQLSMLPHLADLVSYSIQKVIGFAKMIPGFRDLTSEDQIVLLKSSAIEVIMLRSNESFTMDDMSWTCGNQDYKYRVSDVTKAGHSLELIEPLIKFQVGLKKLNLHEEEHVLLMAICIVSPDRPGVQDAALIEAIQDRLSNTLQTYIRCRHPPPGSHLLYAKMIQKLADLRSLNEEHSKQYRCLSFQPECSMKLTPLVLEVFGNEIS
As to the kind of experiment: Agonist activity at recombinant human pFA-CMV fused VDR LBD transfected in HEK293T cells assessed as VDR activation at 1 uM incubated for 12 to 14 hrs by dual glo luciferase reporter gene assay. It counts as cell-based.

Data set [11] deals with T5, Nuclear receptor subfamily 1 group I member 3 (Homo sapiens, UniProt Q14994).
T5 sequence (Q14994 whole entry): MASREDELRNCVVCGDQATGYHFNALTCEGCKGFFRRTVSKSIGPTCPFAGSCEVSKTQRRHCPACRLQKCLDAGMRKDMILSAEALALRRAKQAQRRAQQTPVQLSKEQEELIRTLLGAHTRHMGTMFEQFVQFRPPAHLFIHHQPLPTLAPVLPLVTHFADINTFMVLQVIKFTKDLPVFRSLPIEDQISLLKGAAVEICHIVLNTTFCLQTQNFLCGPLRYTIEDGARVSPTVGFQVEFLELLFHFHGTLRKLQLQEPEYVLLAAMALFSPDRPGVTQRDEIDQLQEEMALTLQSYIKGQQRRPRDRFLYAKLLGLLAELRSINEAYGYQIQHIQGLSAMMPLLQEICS
As to the kind of experiment: Agonist activity at recombinant human pFA-CMV fused CAR LBD transfected in HEK293T cells assessed as CAR activation at 1 uM incubated for 12 to 14 hrs by dual glo luciferase reporter gene assay. It counts as cell-based.

For data set [12], the target named is T1, Peroxisome proliferator-activated receptor delta (Homo sapiens). Kind of data set: Antagonist activity at recombinant human pFA-CMV fused PPARdelta LBD transfected in HEK293T cells assessed as reduction in L165041-induced PPARdelta activation at 1 uM incubated for 12 to 14 hrs by dual glo luciferase reporter gene assay. It counts as cell-based.

Calls of active or inactive are those of the source. The rule behind the calls is not given here.

`CCC/C(=C\c1cc(OCc2ccc3nc(C(F)(F)F)cc(OC)c3c2)ccc1OCCN1CCN(C)CC1)C(=O)O`: the Cmax in [1] was determined as 0.074 µM; in data set [4], 0.446 µM. In addition, the Tmax in data set [2] came out at 1 h; in data set [5], 0.25 h. The AUC(0-t) at 3 h in data set [3] turned out to be 0.112 µg·h/mL. The compound also yielded a concentration at 4 h in [6] of 0.059 µM. The outcome in data set [7], in [8], in data set [9], in [10] and in data set [12] was inactive. Besides, the Activity result in data set [11] is listed as “Not Active”.

Take `CCC/C(=C\c1cc(OCc2ccc3nc(C(F)(F)F)cc(OC)c3c2)ccc1OCC1CCN(C)CC1)C(=O)O`: the Cmax in [1] is 0.06 µM; in [4], 0.38 µM. The Tmax in [2] worked out at 1 h; in [5] it was 2 h. This compound also had an area under the curve AUC(0-t) at 3 h in data set [3] of 0.101 µg·h/mL. The concentration at 4 h in data set [6] came to 0.115 µM. Further, the result in [7], in [8], in [9], in data set [10] and in [12] was inactive. Moreover, in data set [11], the result was Active.

By Cmax is commonly meant the peak of the concentration-time curve. What is called Tmax is the time at which the peak concentration occurs. A word on the AUC(0-t): it is exposure summed from dosing to a finite time, without extrapolation to infinity.
